# Counter-ions that a name gives are not always drawn.
# How the values were obtained:
# human thrombocytes [1] = experiment: Fibrinogen binding to human thrombocytes (125I-fibrinogen, gel-filtered platelets); settings: inhibition of 125I-fibrinogen binding by 50%, 20 minutes at ambient temperature, read-out: Fibrinogen binding test ID50
# Method: (§1) 1. Fibrinogen binding to human thrombocytes Blood obtained by puncture of an antecubital vein is anticoagulated with trisodium citrate (final concentration: 13 mM) and centrifuged for 10 minutes at 170 *g. The supernatant platelet-rich plasma is placed on a Sepharose 2B column (Pharmacia) and eluted with a solution of 90 mM common salt, 14 mM trisodium citrate, 5 mM glucose and 50 mM tris(hydroxymethyl)aminomethane, adjusted to pH 7.4. The gel-filtered platelets (GFP) appearing in front of the plasma proteins are used for the binding tests. 50 μl of a 60 mM calcium chloride solution, 50 μl of a 0.6 mM adenosine diphosphate solution, 100 μl of substance solution or solvent and 50 μl of fibrinogen solution (containing 3 μg ^125 I-fibrinogen) are added to 750 μl of GFP and incubated for 20 minutes at ambient temperature. The non-specific binding is measured in the presence of 3 mg/ml of cold fibrinogen. 900 μl of the incubate are carefully pipetted onto 250 μl of silicon oil (AP 38: AR 20, 1:2 v/v, Wacker Chemie) in Eppendorf vessels and centrifuged for 2 minutes at 10,000 *g. The aqueous supernatant and some of the oil are removed, the tip of the vessel with the platelet pellet is cut off and the quantity of bound fibrinogen is measured in a gamma-counter. The concentration of substance which inhibits fibrinogen binding by 50% is calculated from a series of concentrations and given as the IC50.
# thrombocyte aggregation = experiment: Antithrombotic activity: inhibition of collagen-induced platelet aggregation (Born and Cross) in platelet-rich plasma; format: cell-based, healthy volunteers (human); settings: 10 min, human platelet-rich plasma, 10 minutes incubation at 37° C.
# Method: Method The thrombocyte aggregation is measured using the Born and Cross method (J. Physiol. 170: 397 (1964)) in platelet-rich plasma taken from healthy volunteers. To inhibit coagulation the blood is mixed with 3.14% sodium citrate in a ratio by volume of 1:10. Collagen-induced aggregation The pattern of the decrease in optical density of the platelet suspension is photometrically measured and recorded after the addition of the aggregation-triggering substance. The rate of aggregation is concluded from the angle of inclination of the density curve. The point on the curve where there is maximum light transmittance is used to calculate the optical density. The amount of collagen used is as small as possible but sufficient to produce an irreversible reaction curve. Standard commercial collagen produced by Hormonchemie of Munich is used. Before the addition of the collagen the plasma is incubated for 10 minutes with the substance at 37° C. From the measurements obtained an EC50 is determined graphically, indicating a 50% change in the optical density in terms of the inhibition of aggregation.
# mice = experiment: Tolerability after intravenous administration to mice; format: in vivo; settings: intravenous administration of 30 mg/kg to three mice
# human thrombocytes [2] = experiment: Fibrinogen binding test on human thrombocytes with 125I-fibrinogen replaced by a 3H-labelled ligand (footnote *); settings: * 125I fibrinogen replaced by 3H-labelled (3S,5S)-5-[(4amidino-4-biphenylyl)-oxymethyl... pyrrolidon ligand; 20 min; read-out: Fibrinogen binding test ID50
# Method: as §1, with “The gel-filtered platelets (GFP) appearing in front of the plasma proteins are used for the binding tests. 50 μl of a 60 mM calcium chloride solution, 50 μl of a 0.6 mM adenosine diphosphate solution, 100 μl of substance solution or solvent and 50 μl of fibrinogen solution (containing 3 μg ^125 I-fibrinogen) are added to 750 μl of GFP and incubated for 20 minutes at ambient temperature.” left out, “IC50. | *^125 I fibrinogen was replaced by [^3 […]” for “IC50.”
# human thrombocytes [3] = experiment: Antiaggregatory activity ex vivo after oral administration to rats, rat plasma in the presence of human thrombocytes; design: species or system rat (treated animals; settings: 10 mg/kg oral, two hours after administration, rat plasma with human thrombocytes
Compound,IC50 (human thrombocytes [1]),EC50 (thrombocyte aggregation),deaths (mice),IC50 (human thrombocytes [2]),antiaggregatory activity (human thrombocytes [3])
"COc1nc(-c2ccc(C(=N)N)cc2)ncc1C(=O)N1CCC(CC(=O)O)CC1 [1(14), 2-(4-amidinophenyl)-5-[4-(carboxymethyl)-piperidinocarbonyl]-4-methoxy-pyrimidine]",0.033 µM,0.1 µM,–,–,–
"N=C(N)c1ccc(-c2ccc(Oc3ccc(CCC(=O)O)cc3)nn2)cc1 [1(8), 6-(4-amidinophenyl)-3-[4-(2-carboxyethyl)-phenyloxy]-pyridazine]",1.7 µM,39 µM,–,–,–
"Cn1nc(-c2ccc(C(=N)N)cc2)cc(C(=O)N[C@H]2CC[C@H](C(=O)O)CC2)c1=O [1(4), 6-(4-amidinophenyl)-4-[(trans-4-carboxycyclohexyl)-aminocarbonyl]-2-methyl-(2H)-pyridazin-3-one]",0.037 µM,0.54 µM,did not cause any deaths,–,–
"COC(=O)CCCCNC(=O)c1cc(-c2ccc(C(=N)N)cc2)nn(C)c1=O [2(1), 6-(4-amidinophenyl)-4-[[4-(methoxycarbonyl)-butyl]-aminocarbonyl]-2-methyl-(2H)-pyridazin-3-one]",3.2 µM,1.9 µM,–,–,–
"N=C(N)c1ccc(-c2ccc(Nc3ccc(CCC(=O)O)cc3)nn2)cc1 [1(7), 6-(4-amidinophenyl)-3-[4-(2-carboxyethyl)-phenylamino]-pyridazine]",4.4 µM,12 µM,–,–,–
"N=C(N)c1ccc(-c2cc(C(=O)NCCCCC(=O)O)c(=O)[nH]n2)cc1 [1(3), 6-(4-amidinophenyl)-4-[(4-carboxybutyl)-aminocarbonyl]-2H-pyridazin-3-one]",0.2 µM,0.39 µM,–,–,–
"N=C(N)c1ccc(-c2ccc(N[C@H]3CC[C@H](C(=O)O)CC3)nn2)cc1 [1(11), 6-(4-amidinophenyl)-3-[(trans-4-carboxycyclohexyl)-amino]-pyridazine]",0.58 µM,1.2 µM,–,–,–
"COC(=O)[C@H]1CC[C@H](N(C)C(=O)c2cc(-c3ccc(C(=N)N)cc3)nn(C)c2=O)CC1 [2(17), 6-(4-amidinophenyl)-4-[N-[trans-4-(methoxycarbonyl)-cyclohexyl]-N-methyl-aminocarbonyl]-2-methyl-(2H)-pyridazin-3-one-hydrochloride]",2.3 µM,1.3 µM,–,–,–
"Cn1nc(-c2ccc(C(=N)N)cc2)cc(C(=O)N(C)[C@H]2CC[C@H](C(=O)O)CC2)c1=O [1(16), 6-(4-amidinophenyl)-4-[N-(trans-4-carboxycyclohexyl)-N-methyl-aminocarbonyl]-2-methyl-(2H)-pyridazin-3-one]",0.055 µM,0.16 µM,did not cause any deaths,–,–
"N=C(N)c1ccc(-c2cc(C(=O)N[C@H]3CC[C@H](C(=O)O)CC3)cnn2)cc1 [1(20), 3-(4-amidinophenyl)-5-[(trans-4-carboxycyclohexyl)-aminocarbonyl]-pyridazine]",0.057 µM,0.29 µM,did not cause any deaths,–,–
"Cl.Cn1nc(-c2ccc(CN)cc2)cc(C(=O)N[C@H]2CC[C@H](C(=O)O)CC2)c1=O [Example 4, 6-[4-(Aminomethyl)-phenyl]-4-[(trans-4-carboxy-cyclohexyl)-aminocarbonyl]-2-methyl-(2H)-pyridazin-3-one-hydrochloride]",0.37 µM,0.79 µM,did not cause any deaths,–,–
"COc1nnc(-c2ccc(C(=N)N)cc2)cc1C(=O)N[C@H]1CC[C@H](C(=O)O)CC1 [1(21), 6-(4-amidinophenyl)-4-[(trans-4-carboxycyclohexyl)-aminocarbonyl]-3-methoxy-pyridazine]",0.062 µM,0.32 µM,–,–,–
"N=C(N)c1ccc(-c2cc(C(=O)N[C@H]3CC[C@H](C(=O)O)CC3)c(=O)n(Cc3ccccc3)n2)cc1 [1(18), 6-(4-amidinophenyl)-2-benzyl-4-[(trans-4-carboxycyclohexyl)-aminocarbonyl]-(2H)-pyridazin-3-one]",–,0.31 µM,–,0.033 µM,–
"COC(=O)NC(=N)c1ccc(-c2cc(C(=O)N[C@H]3CC[C@H](C(=O)OC)CC3)c(=O)n(C)n2)cc1 [Example 3, 6-[4-[N-(Methoxycarbonyl)-amidino]-phenyl]-4-[[trans-4-(methoxycarbonyl)-cyclohexyl]-aminocarbonyl]-2-methyl-(2H)-pyridazin-3-one]",2.2 µM,> 300 µM,did not cause any deaths,–,showed an antiaggregatory activity
"N=C(N)c1ccc(-c2cc(C(=O)N[C@H]3CC[C@H](C(=O)O)CC3)c(=O)n(CC(=O)N3CCOCC3)n2)cc1 [1(30), 6-(4-amidinophenyl)-4-[(trans-4-carboxycyclohexyl)-aminocarbonyl]-2-[(morpholinocarbonyl)-methyl]-(2H)-pyridazin-3-one-hydrochloride]",–,0.1 µM,–,0.033 µM,–
"COC(=O)CC1CCN(C(=O)c2cnc(-c3ccc(C(=N)N)cc3)nc2OC)CC1 [2(15), 2-(4-amidinophenyl)-4-methoxy-5-[4-[(methoxycarbonyl)-methyl]-piperidinocarbonyl]-pyrimidine-hydrochloride]",52 µM,5.2 µM,–,–,–
"COC(=O)[C@H]1CC[C@H](NC(=O)c2cc(-c3ccc(C(=N)N)cc3)nn(C)c2=O)CC1 [Example 2, 6-(4-Amidinophenyl)-4-[[trans-4-(methoxycarbonyl)-cyclohexyl]-aminocarbonyl]-2-methyl-(2H)-pyridazin-3-one]",1.9 µM,0.36 µM,–,–,–
"Cn1nc(-c2ccc(C(=N)N)cc2)cc(C(=O)NCCCCC(=O)O)c1=O [Example 1, 6-(4-Amidinophenyl)-4-[(4-carboxybutyl)-aminocarbonyl]-2-methyl-(2H)-pyridazin-3-one]",0.13 µM,0.42 µM,did not cause any deaths,–,–
"COC(=O)[C@H]1CC[C@H](NC(=O)c2cc(-c3ccc(CN)cc3)nn(C)c2=O)CC1 [Example 5, 6-[4-(Aminomethyl)-phenyl]-4-[[trans-4-(methoxycarbonyl)-cyclohexyl]-aminocarbonyl]-2-methyl-(2H)-pyridazin-3-one-hydrochloride]",6.2 µM,3 µM,–,–,–

# From patent US5563268A, “Heterobiaryl derivatives” (Dr. Karl Thomae GmbH, priority 1991, dated 1996)
